The source of these data is ChEMBL document CHEMBL4152254, “Pyridinyl- and pyridazinyl-3,6-diazabicyclo[3.1.1]heptane-anilines: Novel selective ligands with subnanomolar affinity for α4β2 nACh receptors” (Eur J Med Chem, 2018).

A word on the pKi: it is the negative decadic logarithm of the Ki, by convention in mol/L. High values mean a small Ki, low ones a large Ki. For orientation: Emax means the size of the effect at its maximum, as opposed to the concentration needed. By pEC50 is commonly meant −log10 of the EC50, conventionally taken in molar units.

Test [1] addresses T1, Neuronal acetylcholine receptor; alpha4/beta2 (Homo sapiens, UniProt P17787+P43681). The test can be described thus: Agonist activity at alpha4beta2 nAChR (unknown origin). It counts as protein-complex assay.
Test [2] deals with Neuronal acetylcholine receptor subunit alpha-7 (Rattus norvegicus, UniProt Q05941). The test can be described thus: Displacement of [125I]alpha-bungarotoxin from alpha7 nAChR in rat hippocampal membranes. The format is cell membranes. (Displacement assays read how much labelled ligand stays bound in the presence of the test substance.)
Neuronal acetylcholine receptor subunit alpha-7, sequence (Q05941 whole entry): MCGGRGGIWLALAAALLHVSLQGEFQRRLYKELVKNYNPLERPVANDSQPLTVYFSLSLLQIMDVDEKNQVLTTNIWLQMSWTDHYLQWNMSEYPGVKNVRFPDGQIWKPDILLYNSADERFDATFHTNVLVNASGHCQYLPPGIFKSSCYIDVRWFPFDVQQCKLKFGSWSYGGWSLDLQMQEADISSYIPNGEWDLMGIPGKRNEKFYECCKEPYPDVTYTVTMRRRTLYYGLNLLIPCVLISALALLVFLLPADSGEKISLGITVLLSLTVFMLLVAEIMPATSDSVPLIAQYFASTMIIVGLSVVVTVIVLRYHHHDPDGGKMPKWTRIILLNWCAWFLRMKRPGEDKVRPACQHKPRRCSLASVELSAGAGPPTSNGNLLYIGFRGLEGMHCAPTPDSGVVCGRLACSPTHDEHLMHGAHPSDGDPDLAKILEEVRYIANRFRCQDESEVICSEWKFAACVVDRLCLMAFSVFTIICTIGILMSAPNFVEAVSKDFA
For another test, the species on record is Rattus norvegicus. The test can be described thus: Selectivity ratio of Ki for alpha7 nAChR in rat hippocampal membranes to Ki for alpha4beta2 nAChR in rat cortex membranes. It counts as cell membranes.
The target in test [3] is Neuronal acetylcholine receptor; alpha4/beta2 (Rattus norvegicus, UniProt P09483+P12390). The test can be described thus: Displacement of [3H]epibatidine from alpha4beta2 nAChR in rat cortex membranes. The format is cell membranes.
Neuronal acetylcholine receptor; alpha4/beta2 (Rattus norvegicus, UniProt P09483+P12390), sequence (P09483 whole entry): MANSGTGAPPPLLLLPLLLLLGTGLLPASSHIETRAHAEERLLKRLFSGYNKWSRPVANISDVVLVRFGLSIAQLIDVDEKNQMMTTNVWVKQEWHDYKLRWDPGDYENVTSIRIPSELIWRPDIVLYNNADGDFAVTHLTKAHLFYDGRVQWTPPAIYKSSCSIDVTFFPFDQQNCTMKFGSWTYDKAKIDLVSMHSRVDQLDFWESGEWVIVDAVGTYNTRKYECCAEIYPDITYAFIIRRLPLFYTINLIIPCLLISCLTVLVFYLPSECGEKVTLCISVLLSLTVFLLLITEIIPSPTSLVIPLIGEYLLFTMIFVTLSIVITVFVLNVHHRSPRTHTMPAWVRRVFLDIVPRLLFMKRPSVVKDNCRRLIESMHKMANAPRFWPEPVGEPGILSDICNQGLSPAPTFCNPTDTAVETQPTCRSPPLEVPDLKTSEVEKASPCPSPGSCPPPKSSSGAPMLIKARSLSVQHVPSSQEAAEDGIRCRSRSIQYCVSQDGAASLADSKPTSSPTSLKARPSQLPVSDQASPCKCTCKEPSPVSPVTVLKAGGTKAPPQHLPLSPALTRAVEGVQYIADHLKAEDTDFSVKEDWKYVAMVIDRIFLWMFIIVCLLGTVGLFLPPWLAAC
Neuronal acetylcholine receptor; alpha4/beta2 (Rattus norvegicus, UniProt P09483+P12390), sequence (P12390 whole entry): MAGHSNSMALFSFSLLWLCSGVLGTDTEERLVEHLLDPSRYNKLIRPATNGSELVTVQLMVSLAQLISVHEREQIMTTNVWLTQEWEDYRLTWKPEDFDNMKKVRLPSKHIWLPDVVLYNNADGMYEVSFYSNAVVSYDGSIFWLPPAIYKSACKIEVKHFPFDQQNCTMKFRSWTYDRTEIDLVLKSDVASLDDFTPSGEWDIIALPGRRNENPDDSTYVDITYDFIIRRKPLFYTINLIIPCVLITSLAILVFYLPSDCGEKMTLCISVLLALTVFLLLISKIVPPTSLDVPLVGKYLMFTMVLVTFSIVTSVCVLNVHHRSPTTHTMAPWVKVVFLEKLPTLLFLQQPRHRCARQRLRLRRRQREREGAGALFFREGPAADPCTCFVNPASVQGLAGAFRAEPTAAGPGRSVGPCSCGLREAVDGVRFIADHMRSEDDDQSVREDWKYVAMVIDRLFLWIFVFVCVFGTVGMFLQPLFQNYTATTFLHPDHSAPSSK
The nature of test [4]: Selectivity ratio of Ki for human alpha3beta4 nAChR expressed in HEK293 cell membranes to Ki for alpha4beta2 nAChR in rat cortex membranes. The format is cell-based.
Test [5] concerns the target T2, Neuronal acetylcholine receptor; alpha3/beta4 (Homo sapiens, UniProt P30926+P32297). The experiment in a line: Displacement of [3H]epibatidine from human alpha3beta4 nAChR expressed in HEK293 cell membranes.
The target in test [6] is T1, Neuronal acetylcholine receptor; alpha4/beta2. The experiment in a line: Agonist activity at human alpha4beta2 nAChR expressed in rat GH4C1 cells assessed as inward channel current amplitude at 100 uM at -70 mV holding potential by whole cell electrophysiology method relative to acetylcholine. It counts as cell-based.
Test [7] has as its target T2, Neuronal acetylcholine receptor; alpha3/beta4. The experiment in a line: Agonist activity at human alpha3beta4 nAChR expressed in rat GH4C1 cells assessed as inward channel current amplitude at 100 uM at -70 mV holding potential by whole cell electrophysiology method relative to acetylcholine. It counts as cell-based.
Test [8] shares this target. The experiment in a line: Agonist activity at human alpha3beta4 nAChR expressed in rat GH4C1 cells assessed as inward channel current amplitude at -70 mV holding potential by whole cell electrophysiology method. The format is cell-based.
For test [9], the target named is T1, Neuronal acetylcholine receptor; alpha4/beta2. The experiment in a line: Agonist activity at human alpha4beta2 nAChR expressed in rat GH4C1 cells assessed as inward channel current amplitude at -70 mV holding potential by whole cell electrophysiology method. The format is cell-based.
Test [10] has as its target Neuronal acetylcholine receptor subunit alpha-7 (Homo sapiens) (UniProt P36544). The experiment in a line: Agonist activity at human alpha7 nAChR expressed in rat GH4C1 cells assessed as inward channel current amplitude at 100 uM at -70 mV holding potential by whole cell electrophysiology method. It counts as cell-based.

SMILES strings stand for the structures. pEC50, pKi: −log10 of the molar value. Calls of active or inactive are those of the source. The rule behind the calls is not given here. Some results are limits rather than exact numbers.

T2 sequence (P30926 whole entry): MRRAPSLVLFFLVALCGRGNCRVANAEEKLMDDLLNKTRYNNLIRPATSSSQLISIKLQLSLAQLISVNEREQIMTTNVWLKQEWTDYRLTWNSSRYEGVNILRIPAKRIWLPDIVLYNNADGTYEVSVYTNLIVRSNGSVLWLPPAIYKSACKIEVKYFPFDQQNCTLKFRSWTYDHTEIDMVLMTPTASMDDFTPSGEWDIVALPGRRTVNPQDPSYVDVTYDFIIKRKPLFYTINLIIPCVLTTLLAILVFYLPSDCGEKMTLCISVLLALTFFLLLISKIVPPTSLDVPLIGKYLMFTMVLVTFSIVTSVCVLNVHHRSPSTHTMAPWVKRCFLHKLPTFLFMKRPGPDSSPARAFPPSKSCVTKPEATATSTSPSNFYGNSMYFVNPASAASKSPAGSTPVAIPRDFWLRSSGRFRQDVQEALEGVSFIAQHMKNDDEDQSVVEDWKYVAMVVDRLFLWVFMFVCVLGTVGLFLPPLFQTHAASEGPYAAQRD
T2 sequence (P32297 whole entry): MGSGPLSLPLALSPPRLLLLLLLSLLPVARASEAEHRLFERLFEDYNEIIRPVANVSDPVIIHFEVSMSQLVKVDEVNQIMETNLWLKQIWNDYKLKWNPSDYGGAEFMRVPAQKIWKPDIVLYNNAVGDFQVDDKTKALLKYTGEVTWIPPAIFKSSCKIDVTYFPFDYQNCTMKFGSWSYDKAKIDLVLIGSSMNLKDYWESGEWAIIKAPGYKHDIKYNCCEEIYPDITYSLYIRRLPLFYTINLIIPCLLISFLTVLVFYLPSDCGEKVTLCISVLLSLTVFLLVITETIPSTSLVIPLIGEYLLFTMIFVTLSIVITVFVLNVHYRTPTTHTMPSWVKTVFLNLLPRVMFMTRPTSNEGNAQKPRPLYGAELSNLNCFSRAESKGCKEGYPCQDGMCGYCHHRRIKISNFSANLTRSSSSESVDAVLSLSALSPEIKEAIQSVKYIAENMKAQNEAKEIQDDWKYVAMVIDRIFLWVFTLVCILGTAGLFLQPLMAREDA
T1 sequence (P17787 whole entry): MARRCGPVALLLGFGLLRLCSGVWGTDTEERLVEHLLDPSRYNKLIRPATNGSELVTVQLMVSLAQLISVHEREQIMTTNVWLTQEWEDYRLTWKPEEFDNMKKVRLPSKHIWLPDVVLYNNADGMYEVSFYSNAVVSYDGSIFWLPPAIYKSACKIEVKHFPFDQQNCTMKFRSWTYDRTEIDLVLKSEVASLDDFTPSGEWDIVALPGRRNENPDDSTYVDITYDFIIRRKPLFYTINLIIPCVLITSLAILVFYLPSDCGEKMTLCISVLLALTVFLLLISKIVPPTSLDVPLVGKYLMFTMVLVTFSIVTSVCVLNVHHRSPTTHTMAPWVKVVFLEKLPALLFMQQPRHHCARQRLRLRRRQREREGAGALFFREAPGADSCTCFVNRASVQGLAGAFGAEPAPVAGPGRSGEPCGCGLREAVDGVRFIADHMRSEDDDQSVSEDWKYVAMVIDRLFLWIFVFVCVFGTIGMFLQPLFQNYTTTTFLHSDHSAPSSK
T1 sequence (P43681 whole entry): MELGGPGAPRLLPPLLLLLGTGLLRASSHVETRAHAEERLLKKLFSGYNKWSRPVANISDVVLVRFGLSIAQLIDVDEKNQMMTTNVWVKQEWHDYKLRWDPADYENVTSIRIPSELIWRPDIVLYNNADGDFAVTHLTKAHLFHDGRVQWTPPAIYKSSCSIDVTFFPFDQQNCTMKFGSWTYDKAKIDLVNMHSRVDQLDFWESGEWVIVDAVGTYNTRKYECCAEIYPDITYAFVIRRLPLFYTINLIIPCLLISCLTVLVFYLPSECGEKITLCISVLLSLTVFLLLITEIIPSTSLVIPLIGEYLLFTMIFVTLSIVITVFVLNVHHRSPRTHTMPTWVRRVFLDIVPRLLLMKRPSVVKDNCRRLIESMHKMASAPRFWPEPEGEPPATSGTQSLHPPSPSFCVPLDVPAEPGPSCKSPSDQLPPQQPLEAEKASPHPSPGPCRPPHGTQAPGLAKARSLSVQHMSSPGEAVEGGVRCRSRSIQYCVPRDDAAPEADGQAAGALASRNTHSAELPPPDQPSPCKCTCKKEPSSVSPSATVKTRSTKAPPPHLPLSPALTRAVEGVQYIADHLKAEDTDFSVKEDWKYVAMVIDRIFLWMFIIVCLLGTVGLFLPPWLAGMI
Neuronal acetylcholine receptor subunit alpha-7 (Homo sapiens), sequence (P36544 whole entry): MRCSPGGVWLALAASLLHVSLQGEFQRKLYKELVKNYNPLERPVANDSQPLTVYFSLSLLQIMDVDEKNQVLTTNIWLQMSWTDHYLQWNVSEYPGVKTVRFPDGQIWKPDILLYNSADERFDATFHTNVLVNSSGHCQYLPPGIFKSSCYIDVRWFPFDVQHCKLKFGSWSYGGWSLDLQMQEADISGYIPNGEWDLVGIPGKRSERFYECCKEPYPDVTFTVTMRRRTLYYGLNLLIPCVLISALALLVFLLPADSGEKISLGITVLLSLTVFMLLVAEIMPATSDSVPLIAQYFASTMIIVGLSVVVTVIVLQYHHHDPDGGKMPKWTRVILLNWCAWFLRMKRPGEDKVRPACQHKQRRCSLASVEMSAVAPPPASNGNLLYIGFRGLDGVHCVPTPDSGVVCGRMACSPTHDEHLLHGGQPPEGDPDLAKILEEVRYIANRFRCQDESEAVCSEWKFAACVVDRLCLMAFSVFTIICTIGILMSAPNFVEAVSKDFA

Turning to `Clc1ccc(N2CC3CCC(C2)N3)nn1`, in test [1], the pKi is 8.39.

Consider `Clc1ccc(Nc2ccc(N3CC4CC(C3)N4)nn2)cc1Cl`, for which the negative logarithm of the Ki (pKi) in test [2] is 5.29; in test [3], 6.29. For the same compound, in the test filed under Rattus norvegicus, the Ratio Ki came out at 10.

Take `Clc1ccc(N2CC3CCC(C2)N3)cn1`: in [1], the pKi is 9.02.

In the case of `O=[N+]([O-])c1ccc(Nc2cncc(N3CC4CC(C3)N4)c2)cc1`, the Ratio Ki in [4] was 30; in the test listed under Rattus norvegicus, 10700. Further, the figures for the pKi in test [2], in [3] and in test [5] were 6.62, 10.65 and 9.16, respectively.

For `FC(F)(F)c1ccc(Nc2cncc(N3CC4CC(C3)N4)c2)cc1`, the Ratio Ki in test [4] was determined as 3; in the test filed under Rattus norvegicus, 499. Also, the pKi in [2] was 6.73; in test [3], 9.43; in test [5] it was 8.99.

`c1ccc(Nc2ccc(N3CC4CC(C3)N4)cn2)cc1`: the pKi in [2] was 6.32; in [3], 8.58. The Ratio Ki in the test listed under Rattus norvegicus was found to be 179.

On to `Cc1ccc(Nc2ccc(N3CC4CC(C3)N4)cn2)cc1`, for which the pKi in [2] was 4.05; in test [3] it was 7.28. Also, in the test filed under Rattus norvegicus, the Ratio Ki is 1700.

With `Clc1ccc(Nc2ccc(N3CC4CC(C3)N4)cn2)cc1Cl`, the Ratio Ki in [4] was determined as 18; in the test listed under Rattus norvegicus it was 887. For the same compound, the negative logarithm of the Ki (pKi) in [2] is 5.69; in [3], 8.64; in [5], 7.39.

On to `Fc1ccc(Nc2ccc(N3CC4CC(C3)N4)cn2)cc1`, for which the results for the Ratio Ki (in test [4]; in the test listed under Rattus norvegicus) were 5 and 546, respectively. Further, the negative-log Ki (pKi) was 5.89 in test [2], 8.62 in [3] and 7.89 in test [5].

`Clc1ccc(Nc2cncc(N3CC4CC(C3)N4)c2)cc1`: the Ratio Ki was 10 in test [4] and 983 in the test listed under Rattus norvegicus. The pKi in test [2] is 6.94; in test [3], 9.93; in test [5], 8.92.

With `Clc1ccc(Nc2cncc(N3CC4CC(C3)N4)c2)cc1Cl`, the negative-log Ki (pKi) was 5.72 in [2] and 8.90 in test [3]. The Ratio Ki in the test listed under Rattus norvegicus came out at 1520.

In [1], `c1cncc(N2C[C@@H]3C[C@H]2CN3)c1` had a pKi of 9.82.

On to `FC(F)(F)c1ccc(Nc2ccc(N3CC4CC(C3)N4)nn2)cc1`, for which the Ratio Ki in test [4] came out at 17; in the test filed under Rattus norvegicus it was 294. For the same compound, the negative logarithm of the Ki (pKi) is 5.69 in [2], 8.16 in test [3] and 6.94 in test [5].

For the compound `Oc1ccc(Nc2ccc(N3CC4CC(C3)N4)cn2)cc1`, the values for the Ratio Ki (in test [4]; in the test listed under Rattus norvegicus) were 23 and 310, respectively. For the same compound, the pKi was 5.66 in test [2], 8.15 in [3] and 6.78 in [5].

In the case of `c1ccc(Nc2ccc(N3CC4CC(C3)N4)nn2)cc1`, the pKi in [2] was 4.98; in test [3] it was 6.36. For the same compound, the Ratio Ki in the test filed under Rattus norvegicus is 24.

For `c1cc2c(cc1Nc1ccc(N3CC4CC(C3)N4)cn1)OCO2`, the pKi is 5.21 in test [2] and 7.39 in test [3]. In addition, the Ratio Ki in the test listed under Rattus norvegicus was 150.

`c1cncc(N2CC3CCC(C2)N3)c1`: in [1], the pKi is 9.40.

Take `Fc1ccc(Nc2ccc(N3CC4CC(C3)N4)nn2)cc1`: the figures for the pKi in [2] and in test [3] were 3.95 and 6.06, respectively. Besides, the Ratio Ki in the test filed under Rattus norvegicus came out at 128.

Turning to `Clc1cccc(Nc2ccc(N3CC4CC(C3)N4)nn2)c1`, the negative-log Ki (pKi) in test [2] was 4.38; in [3], 5.81. Further, in the test listed under Rattus norvegicus, the Ratio Ki worked out at 27.

`Clc1ccc(N2CC3CC2CN3)cn1` (centres undefined) had a pKi in [1] of 10.74.

In the case of `COc1ccc(Nc2ccc(N3CC4CC(C3)N4)nn2)cc1`, the pKi in [2] was 4.30; in test [3], 6.24. Moreover, the Ratio Ki in the test filed under Rattus norvegicus worked out at 87.

In the case of `Cc1ccc(Nc2ccc(N3CC4CC(C3)N4)nn2)cc1`, the pKi in test [2] was 4.66; in test [3], 7.35. The Ratio Ki in the test filed under Rattus norvegicus stood at 490.

For the compound `O=[N+]([O-])c1ccc(Nc2ccc(N3CC4CC(C3)N4)nn2)cc1`, the results for the pKi in test [2] and in test [3] were 5.16 and 7.06, respectively. For the same compound, the Ratio Ki in the test listed under Rattus norvegicus is 80.

For the compound `Clc1ccc(Nc2ccc(N3CC4CC(C3)N4)cn2)cc1`, the results for the negative logarithm of the Ki (pKi) in test [2] and in test [3] were 6.08 and 8.60, respectively. Moreover, the Ratio Ki in the test filed under Rattus norvegicus is 330.

For the compound `COc1ccc(Nc2cncc(N3CC4CC(C3)N4)c2)cc1`, the maximal effect (Emax) in [6] turned out to be 11%; in test [7], 42.3%. The Ratio Ki in [4] came out at 37; in the test filed under Rattus norvegicus, 14000. Also, the pEC50 is 5.54 in test [8] and 5.72 in test [9]. Further, the pKi was 6.08 in test [2], 10.22 in [3] and 8.66 in test [5]. Besides, the outcome in [10] was inactive.

Consider `c1ccc(Nc2cncc(N3CC4CC(C3)N4)c2)cc1`, for which the Ratio Ki in [4] came to 10; in the test filed under Rattus norvegicus, 333. Besides, the pKi was 7.57 in test [2], 10.09 in test [3] and 9.10 in test [5].

Consider `Clc1cccc(Nc2cncc(N3CC4CC(C3)N4)c2)c1`, for which the Ratio Ki in test [4] is 2360; in the test listed under Rattus norvegicus it was 9680. Also, the negative logarithm of the Ki (pKi) in test [2] was 5.92; in [3], 9.91; in test [5], 6.53.

On to `CN(c1ccccc1)c1cncc(N2CC3CC(C2)N3)c1`, for which the pKi in test [2] was 6.50; in [3], 8.69. Besides, the Ratio Ki in the test filed under Rattus norvegicus amounted to 154.

On to `Oc1ccc(Nc2cncc(N3CC4CC(C3)N4)c2)cc1`, for which the Ratio Ki is 3 in test [4] and 6140 in the test listed under Rattus norvegicus. Also, the figures for the negative-log Ki (pKi) in test [2], in [3] and in [5] were 5.68, 9.47 and 9.01, respectively.

For `Cc1ccc(Nc2cncc(N3CC4CC(C3)N4)c2)cc1`, the Ratio Ki in test [4] stood at 9; in the test filed under Rattus norvegicus, 2030. The figures for the pKi in test [2], in test [3] and in test [5] were 6.52, 9.83 and 8.85, respectively.

In turn, `c1cncc(N2C[C@H]3C[C@@H]2CN3)c1` showed a pKi in test [1] of 10.70.

Regarding `CN(c1ccccc1)c1ccc(N2CC3CC(C2)N3)nn1`, the figures for the pKi in test [2] and in test [3] were 4.00 and 5.84, respectively. In the test filed under Rattus norvegicus, the Ratio Ki came out at 71.

As for `Fc1ccc(Nc2cncc(N3CC4CC(C3)N4)c2)cc1`, the Ratio Ki turned out to be 14 in test [4] and 4850 in the test listed under Rattus norvegicus. Besides, the negative-log Ki (pKi) in [2] is 6.36; in test [3], 10.04; in [5], 8.90.

As to `COc1ccc(Nc2ccc(N3CC4CC(C3)N4)cn2)cc1`, the values for the Ratio Ki (in test [4]; in the test listed under Rattus norvegicus) were 1 and 412, respectively. Further, the pKi was 5.52 in [2], 8.14 in [3] and 8.04 in test [5].

Turning to `O=[N+]([O-])c1ccc(Nc2ccc(N3CC4CC(C3)N4)cn2)cc1`, the Ratio Ki in [4] came out at 14; in the test filed under Rattus norvegicus, 2330. Further, the pEC50 in test [8] and in [9] was under 5.00 in each case. Besides, the pKi is 5.39 in [2], 8.75 in [3] and 7.60 in test [5]. In addition, the outcome in test [10] was inactive.

`FC(F)(F)c1ccc(Nc2ccc(N3CC4CC(C3)N4)cn2)cc1`: the results for the Ratio Ki (in test [4]; in the test filed under Rattus norvegicus) were 1 and 413, respectively. The pKi in test [2] is 6.63; in test [3] it was 9.24; in test [5] it was 9.09.

In the case of `Clc1cccc(Nc2ccc(N3CC4CC(C3)N4)cn2)c1`, the Ratio Ki came out at 2 in test [4] and 1500 in the test filed under Rattus norvegicus. The pKi in test [2] was 5.48; in [3], 8.66; in test [5], 8.32.

Regarding `Clc1ccc(Nc2ccc(N3CC4CC(C3)N4)nn2)cc1`, the negative logarithm of the Ki (pKi) was 4.76 in test [2] and 7.04 in [3]. The Ratio Ki in the test listed under Rattus norvegicus worked out at 191.
